Legend:
[1] = biological target: M3 (Homo sapiens, UniProt P20309); assay: GPCR panel, cAMP or calcium FLIPR assays; format: cell-based
Description: (§1) 28 GPCRs were evaluated through cAMP or calcium FLIPR assays[67].

[2] = biological target: 5HT2A (Homo sapiens, UniProt P28223); assay: GPCR panel, cAMP or calcium FLIPR assays; format: cell-based
Description: 28 GPCRs were evaluated through cAMP or calcium FLIPR assays[67]. A panel of 52 different receptors, ion channels and transporters was tested by Cerep, Inc. (Redmond, WA).

[3] = biological target: T1, ZAP-70(h) (Homo sapiens, UniProt P43403); assay: Kinase panel; format: biochemical
T1 construct: purchased Cerep (receptors, ion channels, transporters); Eurofins Panlabs (kinases)
Description: (§2) Kinase selectivity was conducted by Eurofins Panlabs Inc (St Charles, MO).

[4] = biological target: T2, CaMKIIβ(h) (Homo sapiens, UniProt Q13554); assay: Kinase panel; format: biochemical
T2 construct: purchased Cerep (receptors, ion channels, transporters); Eurofins Panlabs (kinases)
Description: as §2

[5] = biological target: T3, CK2α2(h) (Homo sapiens, UniProt P19784); assay: Kinase panel; format: biochemical
T3 construct: purchased Cerep (receptors, ion channels, transporters); Eurofins Panlabs (kinases)
Description: as §2

[6] = biological target: T4, Plk1(h) (Homo sapiens, UniProt P53350); assay: Kinase panel; format: biochemical
T4 construct: purchased Cerep (receptors, ion channels, transporters); Eurofins Panlabs (kinases)
Description: as §2

[7] = biological target: T5, NE-T transporter (h) (Homo sapiens, UniProt P23975); assay: Cerep panel; format: binding
T5 construct: purchased Cerep (receptors, ion channels, transporters); Eurofins Panlabs (kinases)
Description: (§3) A panel of 52 different receptors, ion channels and transporters was tested by Cerep, Inc. (Redmond, WA).

[8] = tested on: rat whole blood; assay: in vitro whole blood assay, IL-17A production; format: cell-based; settings: rat whole blood diluted 1:4; read-out: IC50, inhibition of IL-17A production
Description: Two days later, IL-17A levels were measured in culture supernatant samples (see supplementary materials and methods).

[9] = biological target: T6, M3 (h) (Homo sapiens, UniProt P20309); assay: Cerep panel; format: binding
T6 construct: purchased Cerep (receptors, ion channels, transporters); Eurofins Panlabs (kinases)
Description: as §3

[10] = biological target: T7, NEK2(h) (Homo sapiens, UniProt P51955); assay: Kinase panel; format: biochemical
T7 construct: purchased Cerep (receptors, ion channels, transporters); Eurofins Panlabs (kinases)
Description: as §2

[11] = biological target: T8, Ret(h) (Homo sapiens, UniProt P07949); assay: Kinase panel; format: biochemical
T8 construct: purchased Cerep (receptors, ion channels, transporters); Eurofins Panlabs (kinases)
Description: as §2

[12] = biological target: T9, NT1 (h) (NTS1) (Homo sapiens, UniProt P30989); assay: Cerep panel; format: binding
T9 construct: purchased Cerep (receptors, ion channels, transporters); Eurofins Panlabs (kinases)
Description: as §3

[13] = biological target: T10, cSRC(h) (Homo sapiens, UniProt P12931); assay: Kinase panel; format: biochemical
T10 construct: purchased Cerep (receptors, ion channels, transporters); Eurofins Panlabs (kinases)
Description: as §2

[14] = biological target: T11, SAPK3(h) (Homo sapiens, UniProt P53778); assay: Kinase panel; format: biochemical
T11 construct: purchased Cerep (receptors, ion channels, transporters); Eurofins Panlabs (kinases)
Description: as §2

[15] = biological target: T12, MT1 (h) (Homo sapiens, UniProt P48039); assay: Cerep panel; format: binding
T12 construct: purchased Cerep (receptors, ion channels, transporters); Eurofins Panlabs (kinases)
Description: as §3

[16] = biological target: delta (Homo sapiens, UniProt P41143); assay: GPCR panel, cAMP or calcium FLIPR assays; format: cell-based
Description: as §1

[17] = tested on: mouse whole blood; assay: in vitro whole blood assay, IL-17A production; format: cell-based; settings: mouse whole blood diluted 1:4; read-out: IC50, inhibition of IL-17A production
[18] = biological target: H1 (Homo sapiens, UniProt P35367); assay: GPCR panel, cAMP or calcium FLIPR assays; format: cell-based
Description: as §1

[19] = biological target: T13, 5-HT7 (h) (Homo sapiens, UniProt P34969); assay: Cerep panel; format: binding
T13 construct: purchased Cerep (receptors, ion channels, transporters); Eurofins Panlabs (kinases)
Description: as §3

[20] = tested on: dogs; assay: chronic dosing up to 9 months in dogs; format: in vivo; settings: dog, data not shown, reversible
Excerpt: This is consistent with the reported physiological role of RORγt as a critical molecule in controlling the survival of thymocytes[7],[66]. JNJ-61803534-induced thymocyte apoptosis was reversible and was deemed non-adverse alterations.

[21] = biological target: T14, mu (h) (MOP) (agonist site) (Homo sapiens, UniProt P35372); assay: Cerep panel; format: binding
T14 construct: purchased Cerep (receptors, ion channels, transporters); Eurofins Panlabs (kinases)
Description: as §3

[22] = biological target: T15, A3 (h) (Homo sapiens, UniProt P0DMS8); assay: Cerep panel; format: binding
T15 construct: purchased Cerep (receptors, ion channels, transporters); Eurofins Panlabs (kinases)
T15 sequence (P0DMS8 1-318): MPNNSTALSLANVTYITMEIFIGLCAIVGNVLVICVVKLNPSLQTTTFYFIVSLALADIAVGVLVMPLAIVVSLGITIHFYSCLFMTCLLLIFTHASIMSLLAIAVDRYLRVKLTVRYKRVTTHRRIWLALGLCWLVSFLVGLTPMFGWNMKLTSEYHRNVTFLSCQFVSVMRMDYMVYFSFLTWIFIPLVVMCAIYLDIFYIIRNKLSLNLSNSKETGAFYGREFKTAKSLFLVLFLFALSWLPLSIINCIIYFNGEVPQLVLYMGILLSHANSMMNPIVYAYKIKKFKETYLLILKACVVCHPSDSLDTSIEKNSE
Description: 28 GPCRs were evaluated through cAMP or calcium FLIPR assays[67]. A panel of 52 different receptors, ion channels and transporters was tested by Cerep, Inc. (Redmond, WA). Kinase selectivity was conducted by Eurofins Panlabs Inc (St Charles, MO).

[23] = biological target: T16, JAK3(h) (Homo sapiens, UniProt P52333); assay: Kinase panel; format: biochemical
T16 construct: purchased Cerep (receptors, ion channels, transporters); Eurofins Panlabs (kinases)
Description: as §2

[24] = biological target: T17, RARα (Homo sapiens, UniProt P10276); assay: nuclear receptor cellular GAL4 reporter assay; format: cell-based; settings: agonist and antagonist mode; read-out: potency in agonist and antagonist mode
T17 construct: expressed in transfected cells

[25] = biological target: T18, D1 (h) (Homo sapiens, UniProt P21728); assay: Cerep panel; format: binding
T18 construct: purchased Cerep (receptors, ion channels, transporters); Eurofins Panlabs (kinases)
Description: as §3

[26] = biological target: T19, CDK1/cyclinB(h) (Homo sapiens, UniProt P06493); assay: Kinase panel; format: biochemical
T19 construct: purchased Cerep (receptors, ion channels, transporters); Eurofins Panlabs (kinases)
Description: as §2

[27] = modeled plasma exposure in the CIA model; format: in vivo, mouse
[28] = biological target: T20, 5-HT1B (Rattus norvegicus, UniProt P28564); assay: Cerep panel; format: binding
T20 construct: purchased Cerep (receptors, ion channels, transporters); Eurofins Panlabs (kinases)
Description: as §3

[29] = biological target: T21, ETA (h) (Homo sapiens, UniProt P25101); assay: Cerep panel; format: binding
T21 construct: purchased Cerep (receptors, ion channels, transporters); Eurofins Panlabs (kinases)
T21 sequence (P25101 21-427): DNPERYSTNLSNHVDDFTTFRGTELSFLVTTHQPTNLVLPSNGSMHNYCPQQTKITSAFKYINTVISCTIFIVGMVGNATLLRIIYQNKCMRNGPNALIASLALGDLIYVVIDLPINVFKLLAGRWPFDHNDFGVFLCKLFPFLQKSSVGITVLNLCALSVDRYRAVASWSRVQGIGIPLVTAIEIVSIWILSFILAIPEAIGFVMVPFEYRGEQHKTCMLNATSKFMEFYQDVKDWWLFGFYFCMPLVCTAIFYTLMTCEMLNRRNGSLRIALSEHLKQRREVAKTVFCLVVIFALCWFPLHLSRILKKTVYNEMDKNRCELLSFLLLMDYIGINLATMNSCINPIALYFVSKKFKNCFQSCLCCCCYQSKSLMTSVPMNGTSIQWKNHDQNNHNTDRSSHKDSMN
Description: as §3

T10 sequence (P12931 whole entry): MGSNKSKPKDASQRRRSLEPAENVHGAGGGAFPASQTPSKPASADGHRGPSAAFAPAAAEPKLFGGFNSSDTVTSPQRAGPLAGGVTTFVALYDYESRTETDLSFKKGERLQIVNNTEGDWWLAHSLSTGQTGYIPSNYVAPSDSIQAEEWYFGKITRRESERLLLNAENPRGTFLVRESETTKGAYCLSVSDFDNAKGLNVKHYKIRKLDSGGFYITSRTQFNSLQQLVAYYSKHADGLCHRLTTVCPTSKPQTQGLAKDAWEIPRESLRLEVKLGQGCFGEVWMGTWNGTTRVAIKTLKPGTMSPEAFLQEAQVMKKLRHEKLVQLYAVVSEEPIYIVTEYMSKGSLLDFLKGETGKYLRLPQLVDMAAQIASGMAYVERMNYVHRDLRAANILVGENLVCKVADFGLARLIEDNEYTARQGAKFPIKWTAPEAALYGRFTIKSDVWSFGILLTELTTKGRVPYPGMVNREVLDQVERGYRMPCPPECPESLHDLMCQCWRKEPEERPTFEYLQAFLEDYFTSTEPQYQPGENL
T8 sequence (P07949 29-1114): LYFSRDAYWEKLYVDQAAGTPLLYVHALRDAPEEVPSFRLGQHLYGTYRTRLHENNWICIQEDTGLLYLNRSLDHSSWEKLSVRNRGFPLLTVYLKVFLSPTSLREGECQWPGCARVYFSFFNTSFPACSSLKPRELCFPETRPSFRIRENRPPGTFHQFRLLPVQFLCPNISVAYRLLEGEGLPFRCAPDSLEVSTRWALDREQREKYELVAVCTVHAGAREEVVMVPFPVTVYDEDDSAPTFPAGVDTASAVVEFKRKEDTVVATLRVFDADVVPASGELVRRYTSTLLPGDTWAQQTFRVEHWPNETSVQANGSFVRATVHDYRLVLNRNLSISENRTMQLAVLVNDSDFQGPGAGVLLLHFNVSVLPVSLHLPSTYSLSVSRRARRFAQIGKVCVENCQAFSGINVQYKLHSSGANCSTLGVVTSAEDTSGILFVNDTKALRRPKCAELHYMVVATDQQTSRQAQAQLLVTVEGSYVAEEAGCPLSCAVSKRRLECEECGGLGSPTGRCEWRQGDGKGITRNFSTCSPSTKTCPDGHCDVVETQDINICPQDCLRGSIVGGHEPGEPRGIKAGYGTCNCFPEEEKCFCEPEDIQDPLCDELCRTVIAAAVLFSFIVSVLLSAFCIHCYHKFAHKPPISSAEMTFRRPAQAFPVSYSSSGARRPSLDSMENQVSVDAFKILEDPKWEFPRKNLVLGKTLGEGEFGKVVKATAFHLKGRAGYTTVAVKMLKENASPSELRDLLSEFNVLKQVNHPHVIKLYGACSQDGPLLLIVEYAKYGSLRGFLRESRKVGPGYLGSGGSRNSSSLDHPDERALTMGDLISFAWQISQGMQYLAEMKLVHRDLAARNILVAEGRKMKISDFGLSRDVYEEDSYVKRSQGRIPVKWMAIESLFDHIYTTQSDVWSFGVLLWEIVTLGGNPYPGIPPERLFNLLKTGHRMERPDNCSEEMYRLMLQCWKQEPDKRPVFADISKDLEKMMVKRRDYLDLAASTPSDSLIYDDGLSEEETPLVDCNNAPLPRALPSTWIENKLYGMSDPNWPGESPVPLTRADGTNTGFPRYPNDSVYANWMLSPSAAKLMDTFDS
T12 sequence (P48039 whole entry): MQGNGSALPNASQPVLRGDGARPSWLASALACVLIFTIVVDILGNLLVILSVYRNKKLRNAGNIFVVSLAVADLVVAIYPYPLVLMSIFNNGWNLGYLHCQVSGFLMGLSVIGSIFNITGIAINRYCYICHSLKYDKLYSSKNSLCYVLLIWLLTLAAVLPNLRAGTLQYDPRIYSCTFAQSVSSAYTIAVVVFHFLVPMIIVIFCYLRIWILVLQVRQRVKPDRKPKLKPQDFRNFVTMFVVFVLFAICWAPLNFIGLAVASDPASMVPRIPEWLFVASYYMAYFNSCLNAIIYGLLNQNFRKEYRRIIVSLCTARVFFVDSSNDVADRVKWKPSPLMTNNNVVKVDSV
T14 sequence (P35372 whole entry): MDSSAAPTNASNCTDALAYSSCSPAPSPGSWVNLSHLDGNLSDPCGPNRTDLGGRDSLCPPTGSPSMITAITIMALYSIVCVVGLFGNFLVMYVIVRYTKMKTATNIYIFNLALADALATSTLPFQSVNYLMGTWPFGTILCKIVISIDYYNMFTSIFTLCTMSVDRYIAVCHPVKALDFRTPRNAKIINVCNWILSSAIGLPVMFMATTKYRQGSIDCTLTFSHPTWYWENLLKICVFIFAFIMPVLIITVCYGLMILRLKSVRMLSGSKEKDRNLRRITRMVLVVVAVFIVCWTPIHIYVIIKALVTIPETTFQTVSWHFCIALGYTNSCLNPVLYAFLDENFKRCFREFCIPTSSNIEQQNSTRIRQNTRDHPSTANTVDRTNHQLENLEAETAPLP
T3 sequence (P19784 whole entry): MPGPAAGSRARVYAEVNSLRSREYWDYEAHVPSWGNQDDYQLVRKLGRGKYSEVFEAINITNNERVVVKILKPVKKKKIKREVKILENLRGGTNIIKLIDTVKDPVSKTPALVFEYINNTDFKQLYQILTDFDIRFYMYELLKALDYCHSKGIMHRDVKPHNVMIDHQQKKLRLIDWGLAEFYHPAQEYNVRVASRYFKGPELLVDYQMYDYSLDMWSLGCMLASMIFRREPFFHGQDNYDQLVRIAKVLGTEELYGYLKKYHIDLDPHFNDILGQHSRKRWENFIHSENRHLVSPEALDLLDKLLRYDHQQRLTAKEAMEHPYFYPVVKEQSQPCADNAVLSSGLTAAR
T4 sequence (P53350 whole entry): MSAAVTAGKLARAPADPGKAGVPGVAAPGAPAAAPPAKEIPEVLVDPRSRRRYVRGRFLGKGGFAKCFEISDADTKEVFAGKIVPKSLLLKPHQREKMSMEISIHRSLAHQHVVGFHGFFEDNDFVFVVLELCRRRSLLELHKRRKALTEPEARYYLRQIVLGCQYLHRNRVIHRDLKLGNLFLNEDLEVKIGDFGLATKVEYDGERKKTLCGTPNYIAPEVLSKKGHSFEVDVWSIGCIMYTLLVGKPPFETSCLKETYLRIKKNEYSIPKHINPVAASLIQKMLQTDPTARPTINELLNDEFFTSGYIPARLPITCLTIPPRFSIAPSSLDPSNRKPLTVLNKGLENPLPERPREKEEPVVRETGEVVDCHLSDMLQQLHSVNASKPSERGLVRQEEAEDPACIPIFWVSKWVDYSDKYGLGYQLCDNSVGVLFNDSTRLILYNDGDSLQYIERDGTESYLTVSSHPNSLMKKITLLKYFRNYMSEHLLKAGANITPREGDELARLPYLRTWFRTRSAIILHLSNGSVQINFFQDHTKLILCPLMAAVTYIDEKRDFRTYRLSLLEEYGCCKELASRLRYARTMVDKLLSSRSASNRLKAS
Sequence of M3 (P20309 whole entry): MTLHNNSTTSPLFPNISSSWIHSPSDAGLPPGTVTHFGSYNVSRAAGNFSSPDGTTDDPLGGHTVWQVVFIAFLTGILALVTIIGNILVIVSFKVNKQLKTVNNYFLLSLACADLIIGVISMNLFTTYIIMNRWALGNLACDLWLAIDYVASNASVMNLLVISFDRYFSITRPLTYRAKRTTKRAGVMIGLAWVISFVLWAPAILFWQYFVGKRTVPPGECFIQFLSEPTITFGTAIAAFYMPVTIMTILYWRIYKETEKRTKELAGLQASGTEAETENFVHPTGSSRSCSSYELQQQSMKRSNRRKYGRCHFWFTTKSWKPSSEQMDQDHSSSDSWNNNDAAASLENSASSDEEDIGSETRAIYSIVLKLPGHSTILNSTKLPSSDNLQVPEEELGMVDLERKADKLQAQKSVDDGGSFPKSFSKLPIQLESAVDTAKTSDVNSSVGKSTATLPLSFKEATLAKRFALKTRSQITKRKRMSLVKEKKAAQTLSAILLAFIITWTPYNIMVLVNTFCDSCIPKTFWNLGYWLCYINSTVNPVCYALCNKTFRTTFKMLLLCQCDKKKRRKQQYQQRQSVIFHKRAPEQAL
T6 sequence (P20309 whole entry): as above
T1 sequence (P43403 whole entry): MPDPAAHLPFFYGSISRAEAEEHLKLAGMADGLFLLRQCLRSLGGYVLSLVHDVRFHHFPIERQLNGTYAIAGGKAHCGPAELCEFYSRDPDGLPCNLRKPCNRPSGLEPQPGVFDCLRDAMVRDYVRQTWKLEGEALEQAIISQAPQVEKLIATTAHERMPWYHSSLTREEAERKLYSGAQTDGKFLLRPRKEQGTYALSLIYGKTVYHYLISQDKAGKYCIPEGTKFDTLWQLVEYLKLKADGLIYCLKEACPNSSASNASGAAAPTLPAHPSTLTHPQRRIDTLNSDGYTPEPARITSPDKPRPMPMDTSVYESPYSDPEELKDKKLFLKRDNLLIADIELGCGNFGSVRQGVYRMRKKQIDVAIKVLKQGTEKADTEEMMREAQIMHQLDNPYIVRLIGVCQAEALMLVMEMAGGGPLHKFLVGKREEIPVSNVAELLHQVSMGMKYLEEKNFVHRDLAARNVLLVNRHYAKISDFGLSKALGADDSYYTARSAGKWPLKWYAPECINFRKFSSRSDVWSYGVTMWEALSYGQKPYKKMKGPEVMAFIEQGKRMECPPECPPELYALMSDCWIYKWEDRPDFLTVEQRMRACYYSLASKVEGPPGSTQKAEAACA

SMILES: CC1CCCN1C(=O)c1nc(C(=O)NCC(C)(C)O)sc1-c1ccc(C(O)(C(F)(F)F)C(F)(F)F)c(Cl)c1Cl (stereo not drawn) [JNJ-61803534]
- EC50 ([1]; agonist): > 10 µM
- IC50 ([1]; antagonist): > 10 µM
- EC50 ([2]; agonist): > 10 µM
- IC50 ([2]; antagonist): > 10 µM
- activity at 1 µM [3]: 137%
- activity at 10 µM [3]: 119%
- activity at 1 µM [4]: 89%
- activity at 10 µM [4]: 92%
- activity at 1 µM [5]: 92%
- activity at 10 µM [5]: 100%
- activity at 1 µM [6]: 111%
- activity at 10 µM [6]: 104%
- inhibition at 1 µM [7]: < 10%
- inhibition at 10 µM [7]: < 10%
- IC50 [8]: 120 ± 10 nM
- inhibition at 1 µM [9]: < 10%
- inhibition at 10 µM [9]: < 10%
- activity at 1 µM [10]: 102%
- activity at 10 µM [10]: 108%
- activity at 1 µM [11]: 107%
- activity at 10 µM [11]: 104%
- inhibition at 1 µM [12]: < 10%
- inhibition at 10 µM [12]: < 10%
- activity at 1 µM [13]: 78%
- activity at 10 µM [13]: 80%
- activity at 1 µM [14]: 106%
- activity at 10 µM [14]: 112%
- inhibition at 1 µM [15]: < 10%
- inhibition at 10 µM [15]: 20.4%
- EC50 ([16]; agonist): > 12.5 µM
- IC50 ([16]; antagonist): > 12.5 µM
- IC50 [17]: 172 ± 50 nM
- EC50 ([18]; agonist): > 10 µM
- IC50 ([18]; antagonist): > 10 µM
- inhibition at 1 µM [19]: < 10%
- inhibition at 10 µM [19]: < 10%
- thymus finding [20]: increase in medium-sized thymocytes/mitoses
- inhibition at 1 µM [21]: < 10%
- inhibition at 10 µM [21]: 12.2%
- inhibition at 1 µM ([22]; 1 µM): < 10%
- % Inhibition at 10 µM ([22]; 10 µM): 45.2%
- inhibition at 10 µM ([22]; 10 µM): > 50%
- activity at 1 µM [23]: 109%
- activity at 10 µM [23]: 114%
- IC50 [24]: > 1500 nM
- inhibition at 1 µM [25]: < 10%
- inhibition at 10 µM [25]: < 10%
- activity at 1 µM [26]: 96%
- activity at 10 µM [26]: 108%
- Caverage ([27]; 3 mg/kg BID): 0.702 µM
- Ctrough ([27]; 3 mg/kg BID): 0.074 µM
- Caverage ([27]; 10 mg/kg BID): 2.032 µM
- Ctrough ([27]; 10 mg/kg BID): 0.211 µM
- Caverage ([27]; 30 mg/kg BID): 6.909 µM
- Ctrough ([27]; 30 mg/kg BID): 0.716 µM
- Caverage ([27]; 60 mg/kg QD): 6.909 µM
- Ctrough ([27]; 60 mg/kg QD): 0.026 µM
- Caverage ([27]; 100 mg/kg BID): 20.321 µM
- Ctrough ([27]; 100 mg/kg BID): 2.106 µM
- inhibition at 1 µM [28]: < 10%
- inhibition at 10 µM [28]: 15.6%
- inhibition at 1 µM [29]: < 10%
- inhibition at 10 µM [29]: < 10%

Reference: PMC8155022 (Scientific Reports, 2021)
